Results as given in patent publication US9133163B2, “Dihydropyrazole GPR40 modulators” (Bristol-Myers Squibb Company, priority 2012, dated 2015).

Biological target: hGPR40 (Homo sapiens, UniProt O14842)
Test: FDSS-based intracellular calcium assay
Assay type: cell-based
Parameters: 3xFLAG; expressed in transfected cells
Conditions: intracellular Ca2+ response, cells expressing GPR40
Experimental: FDSS-Based Intracellular Calcium Assay
Compounds are dissolved in DMSO and diluted to desired concentrations with assay buffer and added to the cells as 3× solution (20 μL per well). Run fluorescence/luminescence reader FDSS (Hamamatsu) to read intracellular Ca^2+ response.

hGPR40, sequence (O14842 whole entry): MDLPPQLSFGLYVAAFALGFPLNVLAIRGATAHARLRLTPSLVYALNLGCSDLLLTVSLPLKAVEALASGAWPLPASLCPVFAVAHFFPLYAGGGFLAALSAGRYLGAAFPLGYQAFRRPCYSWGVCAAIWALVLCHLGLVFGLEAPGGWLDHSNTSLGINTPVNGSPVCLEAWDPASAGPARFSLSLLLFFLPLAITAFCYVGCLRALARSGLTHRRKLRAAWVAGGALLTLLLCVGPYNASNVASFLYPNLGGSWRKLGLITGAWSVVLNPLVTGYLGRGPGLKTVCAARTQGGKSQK

Structure (SMILES)	EC50
C[C@@H]1C(C(F)(F)F)=NN(c2ccc(OC3CCN(c4cc(Cl)ccc4Cl)CC3)cc2)[C@H]1CC(=O)O [Example 35, 2-((4S,5S)-1-(4-((1-(2,5-Dichlorophenyl)piperidin-4-yl)oxy)phenyl)-4-methyl-3-(trifluoromethyl)-4,5-dihydro-1H-pyrazol-5-yl)acetic acid]	254 nM
C[C@@H]1C(C(F)(F)F)=NN(c2ccc(OC3CCN(c4ncccc4F)CC3)cc2)[C@H]1CC(=O)O [Example 41, 2-((4S,5S)-1-(4-((1-(3-Fluoropyridin-2-yl)piperidin-4-yl)oxy)phenyl)-4-methyl-3-(trifluoromethyl)-4,5-dihydro-1H-pyrazol-5-yl)acetic acid]	628 nM
CCOc1cc(N2CC[C@H](Oc3ccc(N4N=C(C(F)(F)F)[C@@H](C)[C@@H]4CC(=O)O)cc3)[C@@H](C)C2)c(Cl)cn1 [Example 82, 2-((4S,5S)-1-(4-(((3S,4S)-1-(5-Chloro-2-ethoxypyridin-4-yl)-3-methylpiperidin-4-yl)oxy)phenyl)-4-methyl-3-(trifluoromethyl)-4,5-dihydro-1H-pyrazol-5-yl)acetic acid]	760 nM
COc1ccc(N2CCC(Oc3ccc(N4N=C(C(F)(F)F)[C@@H](C)[C@@H]4CC(=O)O)cc3)CC2)cc1F [Example 52, 2-((4S,5S)-1-(4-((1-(3-Fluoro-4-methoxyphenyl)piperidin-4-yl)oxy)phenyl)-4-methyl-3-(trifluoromethyl)-4,5-dihydro-1H-pyrazol-5-yl)acetic acid]	3620 nM
Cc1ccc(F)c(N2CCC(Oc3ccc(N4N=C(C(F)(F)F)[C@@H](C)[C@@H]4CC(=O)O)cc3)CC2)n1 [Example 61, 2-((4S,5S)-1-(4-((1-(3-Fluoro-6-methylpyridin-2-yl)piperidin-4-yl)oxy)phenyl)-4-methyl-3-(trifluoromethyl)-4,5-dihydro-1H-pyrazol-5-yl)acetic acid]	366 nM
COc1ccc(F)c(N2CCC(Oc3ccc(N4N=C(C(F)(F)F)[C@@H](CC5CC5)[C@@H]4CC(=O)O)cc3)CC2)c1 (single isomer, unassigned) [Example 90, Isomer 1]	1630 nM
C[C@@H]1C(C(F)(F)F)=NN(c2ccc(OC3CCN(c4cc(F)ccc4F)CC3)cc2)[C@H]1CC(=O)O [Example 38, 2-((4S,5S)-1-(4-((1-(2,5-Difluorophenyl)piperidin-4-yl)oxy)phenyl)-4-methyl-3-(trifluoromethyl)-4,5-dihydro-1H-pyrazol-5-yl)acetic acid]	475 nM
C[C@@H]1C(C(F)(F)F)=NN(c2ccc(OC3CCN(c4cccnc4)CC3)cc2)[C@H]1CC(=O)O [Example 75, 2-((4S,5S)-4-Methyl-1-(4-((1-(pyridin-3-yl)piperidin-4-yl)oxy)phenyl)-3-(trifluoromethyl)-4,5-dihydro-1H-pyrazol-5-yl)acetic acid]	7680 nM
COc1cc(N2CCC(Oc3ccc(N4N=C(C(F)(F)F)[C@@H](C)[C@@H]4CC(=O)O)cc3)C(C)C2)c(Cl)cn1 (stereo partly drawn) [Example 81, Isomer 2, 2-((4S,5S)-1-(4-((1-(5-Chloro-2-methoxypyridin-4-yl)-3-methylpiperidin-4-yl)oxy)phenyl)-4-methyl-3-(trifluoromethyl)-4,5-dihydro-1H-pyrazol-5-yl)acetic acid]	71 nM
C[C@@H]1C(C(F)(F)F)=NN(c2ccc(OC3CCN(c4cc(O)ccc4F)CC3)cc2)[C@H]1CC(=O)O [Example 102, 2-((4S,5S)-1-(4-((1-(2-Fluoro-5-hydroxyphenyl)piperidin-4-yl)oxy)phenyl)-4-methyl-3-(trifluoromethyl)-4,5-dihydro-1H-pyrazol-5-yl)acetic acid]	190 nM
COc1cccc(F)c1N1CCC(Oc2ccc(N3N=C(C(F)(F)F)[C@@H](C)[C@@H]3CC(=O)O)cc2)CC1 [Example 54, 2-((4S,5S)-1-(4-((1-(2-Fluoro-6-methoxyphenyl)piperidin-4-yl)oxy)phenyl)-4-methyl-3-(trifluoromethyl)-4,5-dihydro-1H-pyrazol-5-yl)acetic acid]	5900 nM
COc1ccc(C#N)c(N2CCC(Oc3ccc(N4N=C(C(F)(F)F)[C@@H](C)[C@@H]4CC(=O)O)cc3)CC2)c1 [Example 21, 2-((4S,5S)-1-(4-((1-(2-Cyano-5-methoxyphenyl)piperidin-4-yl)oxy)phenyl)-4-methyl-3-(trifluoromethyl)-4,5-dihydro-1H-pyrazol-5-yl)acetic acid]	680 nM
COc1ccc(F)c(N2CCC(Oc3ccc(N4N=C(C(F)(F)F)[C@@H](CC(C)C)[C@@H]4CC(=O)O)cc3)CC2)c1 (single isomer, unassigned) [Example 89, Isomer 2]	390 nM
COc1ccc(F)c(N2CCC(Oc3ccc(N4N=C(C(F)(F)F)[C@@H](C)[C@@H]4CC(=O)O)cc3)C(F)C2)c1 (single isomer, unassigned) [Example 57 (Isomer 2)]	119 nM
CC(C)COc1cc(F)c(F)c(N2CCC(Oc3ccc(N4N=C(C(F)(F)F)[C@@H](C)[C@@H]4CC(=O)O)cc3)CC2)c1 [Example 18, 2-((4S,5S)-1-(4-((1-(2,3-Difluoro-5-isobutoxyphenyl)piperidin-4-yl)oxy)phenyl)-4-methyl-3-(trifluoromethyl)-4,5-dihydro-1H-pyrazol-5-yl)acetic acid]	4760 nM
COc1cc(N2CC[C@@H](Oc3ccc(N4N=C(C(F)(F)F)[C@@H](C)[C@@H]4CC(=O)O)c(Br)c3)[C@H](C)C2)c(Cl)cn1 [Example A3, 2-((4S,5S)-1-(2-Bromo-4-(((3R,4R)-1-(5-chloro-2-methoxypyridin-4-yl)-3-methylpiperidin-4-yl)oxy)phenyl)-4-methyl-3-(trifluoromethyl)-4,5-dihydro-1H-pyrazol-5-yl)acetic acid]	844 nM
CCOc1cc(F)c(F)c(N2CCC(Oc3ccc(N4N=C(C(F)(F)F)[C@@H](C)[C@@H]4CC(=O)O)cc3)C(C)C2)c1 (single isomer, unassigned) [Example 10 (Isomer 2)]	315 nM
CCOc1ccc(F)c(N2CCC(Oc3ccc(N4N=C(C(F)(F)F)[C@@H](C)[C@@H]4CC(=O)O)cc3)C(C(C)C)C2)c1 (single isomer, unassigned) [Example 26 (Isomer 1)]	1900 nM
COc1ccc(F)c(N2CCC(Oc3ccc(N4N=C(C(F)(F)F)[C@@H](CC(C)C)[C@@H]4CC(=O)O)cc3)CC2)c1 (single isomer, unassigned) [Example 89, Isomer 1]	7960 nM
Cc1ccc(C)c(N2CCC(Oc3ccc(N4N=C(C(F)(F)F)[C@@H](C)[C@@H]4CC(=O)O)cc3)CC2)c1 [Example 43, 2-((4S,5S)-1-(4-((1-(2,5-Dimethylphenyl)piperidin-4-yl)oxy)phenyl)-4-methyl-3-(trifluoromethyl)-4,5-dihydro-1H-pyrazol-5-yl)acetic acid]	1070 nM
COc1ccc(F)c(N2CCC(Oc3ccc(N4N=C(C(F)(F)F)[C@@H](C)[C@@H]4CC(=O)O)cc3)C(F)C2)c1 (single isomer, unassigned) [Example 57 (Isomer 1)]	292 nM
Cc1cccc(F)c1N1CCC(Oc2ccc(N3N=C(C(F)(F)F)[C@@H](C)[C@@H]3CC(=O)O)cc2)CC1 [Example 42, 2-((4S,5S)-1-(4-((1-(2-Fluoro-6-methylphenyl)piperidin-4-yl)oxy)phenyl)-4-methyl-3-(trifluoromethyl)-4,5-dihydro-1H-pyrazol-5-yl)acetic acid]	796 nM
CCOc1cc(N2CC[C@@H](Oc3ccc(N4N=C(C(F)(F)F)[C@@H](C)[C@@H]4CC(=O)O)cc3)[C@H](C)C2)c(F)cn1 [Example 85, 2-((4S,5S)-1-(4-(((3R,4R)-1-(2-Ethoxy-5-fluoropyridin-4-yl)-3-methylpiperidin-4-yl)oxy)phenyl)-4-methyl-3-(trifluoromethyl)-4,5-dihydro-1H-pyrazol-5-yl)acetic acid]	277 nM
COc1cc(Cl)cc(N2CCC(Oc3ccc(N4N=C(C(F)(F)F)[C@@H](C)[C@@H]4CC(=O)O)cc3)CC2)n1 [Example 78, 2-((4S,5S)-1-(4-((1-(4-Chloro-6-methoxypyridin-2-yl)piperidin-4-yl)oxy)phenyl)-4-methyl-3-(trifluoromethyl)-4,5-dihydro-1H-pyrazol-5-yl)acetic acid]	1990 nM
C[C@@H]1C(C(F)(F)F)=NN(c2ccc(OC3CCN(c4cc(F)ccc4Cl)CC3)cc2)[C@H]1CC(=O)O [Example 59, 2-((4S,5S)-1-(4-((1-(2-Chloro-5-fluorophenyl)piperidin-4-yl)oxy)phenyl)-4-methyl-3-(trifluoromethyl)-4,5-dihydro-1H-pyrazol-5-yl)acetic acid]	361 nM
COc1cc(N2CC[C@H](Oc3ccc(N4N=C(C(F)(F)F)[C@@H](C)[C@@H]4CC(=O)O)cc3)[C@@H](C)C2)c(Cl)cn1 [Example 81, Isomer 1, 2-((4S,5S)-1-(4-((1-(5-Chloro-2-methoxypyridin-4-yl)-3-methylpiperidin-4-yl)oxy)phenyl)-4-methyl-3-(trifluoromethyl)-4,5-dihydro-1H-pyrazol-5-yl)acetic acid]	319 nM
COc1ccc(F)c(N2CCC(Oc3ccc(N4N=C(C(F)(F)F)[C@@H](CC5CC5)[C@@H]4CC(=O)O)cc3)CC2)c1 (single isomer, unassigned) [Example 90, Isomer 2]	156 nM
COc1cc(N2CCC(Oc3ccc(N4N=C(C(F)(F)F)[C@@H](C)[C@@H]4CC(=O)O)cc3)CC2)ccn1 [Example 47, 2-((4S,5S)-1-(4-((1-(2-Methoxypyridin-4-yl)piperidin-4-yl)oxy)phenyl)-4-methyl-3-(trifluoromethyl)-4,5-dihydro-1H-pyrazol-5-yl)acetic acid]	1910 nM
CC[C@@H]1C(C(F)(F)F)=NN(c2ccc(OC3CCN(c4cc(OC)ccc4F)CC3)cc2)[C@H]1CC(=O)O (single isomer, unassigned) [Example 88, Isomer 2]	7450 nM
C[C@@H]1C(C(F)(F)F)=NN(c2ccc(OC3CCN(c4ccc(Cl)cc4F)CC3)cc2)[C@H]1CC(=O)O [Example 63, 2-((4S,5S)-1-(4-((1-(4-Chloro-2-fluorophenyl)piperidin-4-yl)oxy)phenyl)-4-methyl-3-(trifluoromethyl)-4,5-dihydro-1H-pyrazol-5-yl)acetic acid]	398 nM
